“Also recorded” adds a separate entry of the source.
How the values were obtained:
[1] = tested on: HUVECs; assay: Apoptosis of endothelial cells (HUVECs) in serum enriched media; assay type: cell-based, human
[2] = tested on: retinal vessels of adult mice; assay: In vivo adult retinal vessel assay (intravitreal injection); parameters: species or system mouse; details: five days after injection
Method: Adult, three month old, 129 and C57/BL6/129S mice were anesthetized with Avertin and also given a drop of topical proparacaine 1% for local anesthesia. Using a stereo microscope, a glass capillary pipette was used to inject 1 μL of either vehicle or racemic Nutlin-3 into the vitreous of cavity of both eyes of each animal. Mice were then euthanized five days after injection. All procedures involving mice were approved and monitored by the Weill Medical College of Cornell University and Hospital for Special Surgery Animal Care and Use Committees. The eyes were then fixed in 4% paraformaldeheyde overnight and washed three times with PBS. After removing the cornea and lens, the hyaloidal (primitive) vasculature was removed and four radial incisions were made in the eyecup to flatten the retina/choroid/sclera complex. The choroid and sclera were removed from the retina and cut at the optic nerve. After the retinal wholemount was blocked with 5% bovine serum albumin, 5% normal donkey serum, and 0.5% TritonX-100 for 3 hours or overnight, the wholemount was incubated with a 1:200 dilution of GS-IB4 lectin overnight and mounted with Vectashield (Vector Laboratories). […]

[3] = tested on: HRMECs; assay: Cell viability/proliferation, HRMECs in serum; assay type: cell-based, human; details: racemic Nutlin-3
Method: (§1) Cells were seeded at a concentration of 2×10^5 for HUVECs and 2×10^4 for HUVSMCs in serum free media on 12 well plates after detachment. The cells were allowed to adhere overnight in growth media, and then incubated with X-VIVO media (Cambrex) with or without cytokines (10 ng/ml FGF-2 and 2 μg/ml heparin or 10 ng/ml VEGF-A). For HRMEC experiments, cells were seeded at a concentration of 1×10^5 and allowed to settle overnight in 6-cm plates coated with attachment factor (Cell Signaling, Danvers, Mass.). The next day, fresh 10% FBS and EBM medium was added. […] After incubation, HUVEC were detached with collagenase/EDTA and HUVSMC and HRMEC were detached with trypsin/EDTA. The cells were manually counted with a Hemacytometer (Hausser Scientific, Horsham, Pa.) using Trypan blue exclusion.

[4] = tested on: HRMECs; assay: Apoptosis of HRMECs in serum (TUNEL); assay type: cell-based, human; details: HRMECs in serum (10% FBS)
Method: (§2) HUVECs were plated on collagen coated plastic bottom culture dishes (MatTek Corp., Ashland, Mass.) overnight. […] HRMEC were treated with 15 μM of racemic Nutlin for 24 hours in 10% FBS. The TUNEL assay was performed following instructions provided with the kit (Roche Applied Science, Indianapolis, Ind.). Representative images of the HRMEC experiment were provided with a 4× objective using an Olympus AX70 fluorescence microscope following the addition of a nuclear counter stain. For HUVEC experiments, 5 representative fields with a 20× objective using a Zeiss confocal microscope were captured. 2 masked observers performed cell counts. For wholemount retina staining, TUNEL solution was incubated for 48 hours diluted in PBS plus 0.3% Triton-X 100 after lectin staining.

[5] = tested on: p53; assay: p53 expression in HRMECs; assay type: cell-based, human; details: racemic Nutlin-3, 10% FBS
Method: (§3) HUVECs and HUVSMCs were incubated at 2×10^6 in X-VIVO media and HRMECs in EBM with 10% FBS under various conditions as reported in the results. Western blot extracts were prepared by lysing cells attached cells in cold RIPA buffer in the presence of protease inhibitors for HUVEC and HUVSMC and passive lysis buffer (Promega, Madison, Wis.) for HRMEC. After sonication and centrifugation to remove cell debris, the protein yield was quantified using the BCA protein assay kit (Pierce Biotechnology Inc., Rockford, Ill.). Normalized cell lysates were then mixed with sample buffer containing 2-mercaptoethanol and SDS and heated for 5 minutes at 95° C. Equal amounts of protein were run on SDS-polyacrylamide gels before being transferred to PVDF membranes. Binding of the primary antibody against p53, p21, and beta actin was detected with enhanced chemiluminescence reagent (Amersham) using HRP-conjugated secondary antibody (1:10,000, Amersham).

[6] = tested on: retinal vasculature of mouse pups; assay: In vivo retinal vascular development assay (subcutaneous and periocular injection)
Method: A technique described by Strombland et al. was modified to study the effects of Nutlin-3 on in vivo vascular development (see Stromblad S, Fotedar A, Brickner H, et al., J. Biol. Chem. 277:13371-13374 (2002), which is incorporated herein by reference. Briefly, racemic Nutlin was administered by subcutaneous injection in the nape of the neck or in the periocular area of each eye to wild type 129 S1-VIMJ (Jackson Laboratories, Bar Harbor, Me.) mouse pups within 12 hours of birth. The mice received a total of 4 (periocular experiments) or 5 (subcutaneous neck experiments) injections of either racemic Nutlin or 100% DMSO. The first injection of Nutlin was administered at a dose of 40 mg/kg while the rest were given at a dose of 80 mg/kg for experiments involving injections in the nape of the neck. A dose of 80 mg/kg was administered for all injections in the periocular series of experiments. The pups were euthanized on postnatal day 3 and the eyes were enucleated after the fused eyelids incised.
The eyes were then fixed in 4% paraformaldeheyde overnight and washed three times with PBS. After removing the cornea and lens, the hyaloidal (primitive) vasculature was removed and four radial incisions were made in the eyecup to flatten the retina/choroid/sclera complex. The choroid and sclera were removed from the retina and cut at the optic nerve. After the retinal wholemount was blocked with 5% bovine serum albumin, 5% normal donkey serum, and 0.5% TritonX-100 for 3 hours or overnight, the wholemount was incubated with a 1:200 dilution of GS-IB4 lectin overnight and mounted with Vectashield (Vector Laboratories). For double staining wholemount experiments, retinas were incubated with primary antibody overnight at 4° C., underwent 6 one hour washes with PBS-T, followed by incubation with secondary antibody overnight at 4° C., followed by 6 one hour washes with PBS-T prior to being cover-slipped with Vectashield. Using a fluorescent biomicroscope (Carl Zeiss Discovery V12, Thornwood, N.Y.) hyaloidal vessels, vessels connected to the optic nerve, on the surface of the retina, were dissected in a masked manner. A confocal laser (Carl Zeiss LSM 510 meta) was used to obtain images of the retinal vasculature.
We captured images with the same laser power, objective, gain, pinhole, and amplifier offset. The resultant images were masked to the analyst assessing the images. All analyzed images were captured with a 5× objective and then exported to Adobe Photoshop 7.0 (San Jose, Calif.) as high-resolution .tiff images. Using the Magic Wand tool and histogram function, the analyst recorded the number of pixels that best represented the retinal vasculature and omitted the residual hyaloidal (fetal) vasculature that was unable to be removed during dissection. Blood vessels assessed to be residual hyaloid were found at a different focal plane than retinal blood vessels and were usually connected to the optic nerve.

[7] = tested on: HUVECs; assay: Cell proliferation assay, HUVECs (manual count, Trypan blue exclusion); assay type: cell-based, human; details: for HUVEC proliferation: 36 hours
Method: as §1
First, we performed a dose response curve on unstimulated and stimulated serum free HUVECs. […] HUVECs were either unchallenged or challenged with VEGF-A or FGF-2 during the incubation. […] Cell viability was measured at 12, 24, and 36 hours after incubation.

[8] = tested on: HUVECs; assay: Flow cytometric analysis for apoptosis (annexin V/propidium iodide), HUVECs; assay type: cell-based, human; details: HUVEC, 7.5 μM, 24 hours, compared to the control
Text: (§4) HUVECs were detached with collagenase/EDTA and HUVSMCs were detached with trypsin/EDTA. The cells were then washed twice with PBS, and stained with propidium iodide and annexin V-FITC (Annexin V-FITC apoptosis detection kit I, Beckton Dickinson) according to the manufacturer's instructions.

[9] = tested on: p53 siRNA infected HUVECs; assay: Cell viability of p53 siRNA infected HUVECs; assay type: cell-based, human; details: 7.5 μM, FGF-2, 48 hours; p53 siRNA vs control siRNA
Method: Passage 3 HUVECs were grown to confluence. pRETRO-SUPER and pRETRO-SUPER-p53 viruses were produced by GP2 cells (Clontech, Mountain View, Calif.). Supernatant was filtered and then added to HUVECs in the presence of […] polybrene followed by 1 μg/ml of Puromycin selection for 7 days.
To determine if the p53 pathway is necessary for the observed Nutlin-3 mediated cellular effects, we infected HUVEC with retrovirus expressing either control short interfering RNA (siRNA) or p53 siRNA. […] (A and B) HUVECs were infected with a lentiviral vector expressing p53 siRNA or control siRNA for 48 hours and then underwent Puromycin selection for 72 hours.

[10] = tested on: HUVSMCs; assay: Flow cytometric analysis for apoptosis (annexin V/propidium iodide), HUVSMCs; assay type: cell-based, human; details: HUVSMC, 7.5 μM, 36 hours, compared to control
Text: as §4

[11] = tested on: HUVECs; assay: TUNEL assay for apoptosis, HUVECs; assay type: cell-based, human; details: serum free HUVEC, 7.5 μM, 24 hours, compared to control
Method: as §2

[12] = tested on: HUVECs; assay: Matrigel tube assay for in vitro angiogenesis; assay type: cell-based, human; details: FGF-2, 24 hours
Method: Matrigel matrix (Becton Dickinson, San Jose, Calif.) was kept on ice for 24 hours. Then, 200 ill of Matrigel were added to each well of a 24 well culture plate. After hardening the Matrigel at 37° C. for 30 minutes, gels were overlaid with 500 μl of X-VIVO medium containing 3×10^4 HUVECs. […] The effect of Nutlin was inspected 24 hours under an inverted light microscope. Nine overlapping images with a 10× objective were taken of each well to perform tubule length quantification. Adobe Photoshop 7.0 (Adobe Systems Inc., San Jose, Calif.) was used to make a montage image of each well. Each montage image was then imported into LSM Image Browser v3.5 (Carl Zeiss Inc., Thornwood, N.Y.) to measure tubule length. Tubule length was then standardized to the overall pixel area examined. A masked observer assessed all measurements.

[13] = tested on: p53; assay: p53/p21 immunofluorescence and Western blot in HUVSMCs; assay type: cell-based, human; details: HUVSMC, 7.5 μM, within 8 hours
Method: as §3

[14] = tested on: HUVSMCs; assay: Cell proliferation assay, HUVSMCs (manual count, Trypan blue exclusion); assay type: cell-based, human
Method: as §1

[15] = tested on: p53; details: HUVEC, 8 hours, compared to Nutlin-3B or control
Method: as §3

COc1ccc(C2=NC(c3ccc(Cl)cc3)C(c3ccc(Cl)cc3)N2C(=O)N2CCNC(=O)C2)c(OC(C)C)c1 (racemic) [Nutlin-3, (±)-4-[4,5-bis(4-chlorophenyl)-2-(2-isopropoxy-4-methoxy-phenyl)-4,5-dihydro-imidazole-1-carbonyl]-piperazin-2-one]
apoptosis of endothelial cells [1]: do not undergo apoptosis
thickness of the neuronal cell layers of the neurosensory retina (hematoxylin and eosin) [2]: did not observe any gross changes in the thickness of the neuronal cell layers
retinal vasculature of adult mice compared to control ([2]; p>0.05): no reduction of the retinal vasculature; also recorded: no difference
HRMEC cell viability [3]: sufficient to inhibit cell viability
apoptosis in HRMECs [4]: induces apoptosis
p53 expression in HRMECs [5]: upregulation of p53
retinal vasculature compared to sham injected mice (images) ([6]; neonatal mice, periocular injection, FIG. 6E): less retinal vasculature
fewer blood vessels compared to the sham-injected mice ([6]; neonatal mice, periorbital (periocular) injection, 80 mg/kg, postnatal day 3, p<0.01): 43.8%
calibre of retinal vessels affected ([6]; neonatal mice, retinal wholemounts): loss of smaller caliber vessels; also recorded: preferentially targeted capillaries and smaller blood vessels
reduction in the amount of retinal vessels compared to sham injected mice ([6]; neonatal mice, subcutaneous injection in the nape of the neck, 40 then 80 mg/kg, postnatal day 3, p<0.05): 27.4%
retinal vasculature compared to sham injected mice (images) ([6]; neonatal mice, subcutaneous injection in the nape of the neck, FIG. 6B): abrogated
TUNEL positive cells in the retinal vasculature ([6]; neonatal mouse retinal wholemount, GS-IB4 lectin co-staining, rare event): TUNEL positive cells that co-localized to the retinal endothelium

COc1ccc(C2=N[C@H](c3ccc(Cl)cc3)[C@H](c3ccc(Cl)cc3)N2C(=O)N2CCNC(=O)C2)c(OC(C)C)c1 [Nutlin-3B]
HUVEC proliferation ([7]; 10 μM): little effect on HUVEC proliferation

COc1ccc(C2=N[C@@H](c3ccc(Cl)cc3)[C@@H](c3ccc(Cl)cc3)N2C(=O)N2CCNC(=O)C2)c(OC(C)C)c1 [Nutlin-3A]
HUVEC growth / cell viability, time course ([7]; 7.5 μM, unstimulated, serum free HUVEC, by 36 hours): near complete cell death
HUVEC proliferation ([7]; 1, 5 or 10 μM, serum free HUVECs unchallenged or challenged with VEGF-A or FGF-2): inhibit HUVEC proliferation at all tested doses with greater activity at higher concentrations
double positive annexin V and propidium iodide cells (late apoptosis) [8]: significantly more double positive annexin V and propidium iodide cells
cell viability of p53 siRNA infected HUVECs [9]: p53 siRNA infected cells had become resistant
annexin V and propidium iodide staining (apoptosis) [10]: no significant difference
TUNEL positive cells (apoptosis) [11]: significantly more cells undergoing apoptosis
dose dependence of capillary tube formation inhibition ([12]; 5 and 7.5 μM): dose dependent
reduction in capillary tube formation ([12]; HUVEC on Matrigel, compared to control): 93%
p53 response (immunofluorescence and Western blot) [13]: initiated a p53 response; also recorded: increased p53 expression
HUVSMC proliferation, time course ([14]; 7.5 μM, serum free HUVSMCs activated with FGF-2 or 5% FBS, at 48 to 72 hours): growth inhibited
HUVSMC early response to increasing concentrations ([14]; 7.5, 15, 30 μM, serum free, unchallenged HUVSMCs, at 36 hours, p>0.05): did not find an early response
p53 and p21 protein (Western blot) [15]: increased p53 protein, and its downstream target p21

— patent US20130225603A1, “MDM2 INHIBITORS FOR TREATMENT OF OCULAR CONDITIONS” (SERRATA LLC, priority 2010, published 2013)
